Experiment: xn = mol fraction of the nth substance listed
Details: 101.3 kPa

With CCCCCC[NH2+]CCN.O=S(=O)([N-]S(=O)(=O)C(F)(F)F)C(F)(F)F + O the electrical conductivity (303.15 K, x1 = 0.401) was 0.251 S/m, the viscosity (303.15 K, x1 = 0.401) was 51.4 mPa·s and the electrical conductivity (303.15 K, x1 = 0.4387) was 0.209 S/m. The viscosity (303.15 K, x1 = 0.4387) was 66.6 mPa·s, the electrical conductivity (303.15 K, x1 = 0.5021) was 0.135 S/m and the viscosity (303.15 K, x1 = 0.5021) was 104 mPa·s. For the same compound, the electrical conductivity (303.15 K, x1 = 0.5762) was 0.066 S/m, the viscosity (303.15 K, x1 = 0.5762) was 117 mPa·s and the electrical conductivity (303.15 K, x1 = 0.6827) was 0.0619 S/m. For the same compound, the viscosity (303.15 K, x1 = 0.6827) was 168 mPa·s, the electrical conductivity (303.15 K, x1 = 0.8153) was 0.0416 S/m and the viscosity (303.15 K, x1 = 0.8153) was 226 mPa·s. It also gave an electrical conductivity (303.15 K, x1 = 0.8939) of 0.0284 S/m, a viscosity (303.15 K, x1 = 0.8939) of 260 mPa·s and an electrical conductivity (308.15 K, x1 = 0.401) of 0.324 S/m. It also gave a viscosity (308.15 K, x1 = 0.401) of 40.1 mPa·s, an electrical conductivity (308.15 K, x1 = 0.4387) of 0.267 S/m and a viscosity (308.15 K, x1 = 0.4387) of 51 mPa·s. The electrical conductivity (308.15 K, x1 = 0.5762) was 0.0972 S/m, the viscosity (308.15 K, x1 = 0.5762) was 86.6 mPa·s and the electrical conductivity (308.15 K, x1 = 0.6827) was 0.085 S/m. For the same compound, the viscosity (308.15 K, x1 = 0.6827) was 131 mPa·s, the electrical conductivity (308.15 K, x1 = 0.8153) was 0.0537 S/m and the viscosity (308.15 K, x1 = 0.8153) was 160 mPa·s. The electrical conductivity (308.15 K, x1 = 0.8939) was 0.0432 S/m, the viscosity (308.15 K, x1 = 0.8939) was 179 mPa·s and the electrical conductivity (313.15 K, x1 = 0.401) was 0.396 S/m. It also gave a viscosity (313.15 K, x1 = 0.401) of 31.8 mPa·s, an electrical conductivity (313.15 K, x1 = 0.4387) of 0.328 S/m and a viscosity (313.15 K, x1 = 0.4387) of 39.8 mPa·s. For the same compound, the electrical conductivity (313.15 K, x1 = 0.5021) was 0.221 S/m, the viscosity (313.15 K, x1 = 0.5021) was 59.1 mPa·s and the electrical conductivity (313.15 K, x1 = 0.5762) was 0.138 S/m. It also gave a viscosity (313.15 K, x1 = 0.5762) of 65.5 mPa·s, an electrical conductivity (313.15 K, x1 = 0.6827) of 0.11 S/m and a viscosity (313.15 K, x1 = 0.6827) of 97.4 mPa·s. The electrical conductivity (313.15 K, x1 = 0.8153) was 0.0733 S/m, the viscosity (313.15 K, x1 = 0.8153) was 118 mPa·s and the electrical conductivity (313.15 K, x1 = 0.8939) was 0.056 S/m. For the same compound, the viscosity (313.15 K, x1 = 0.8939) was 131 mPa·s, the electrical conductivity (318.15 K, x1 = 0.401) was 0.485 S/m and the viscosity (318.15 K, x1 = 0.401) was 25.7 mPa·s. For the same compound, the electrical conductivity (318.15 K, x1 = 0.4387) was 0.409 S/m, the viscosity (318.15 K, x1 = 0.4387) was 31.6 mPa·s and the electrical conductivity (318.15 K, x1 = 0.5021) was 0.278 S/m. For the same compound, the viscosity (318.15 K, x1 = 0.5021) was 45.9 mPa·s, the electrical conductivity (318.15 K, x1 = 0.6827) was 0.144 S/m and the viscosity (318.15 K, x1 = 0.6827) was 74.1 mPa·s. It also gave an electrical conductivity (318.15 K, x1 = 0.8153) of 0.0987 S/m, a viscosity (318.15 K, x1 = 0.8153) of 88.2 mPa·s and an electrical conductivity (318.15 K, x1 = 0.8939) of 0.075 S/m. It also gave a viscosity (318.15 K, x1 = 0.8939) of 95.9 mPa·s, an electrical conductivity (323.15 K, x1 = 0.4387) of 0.502 S/m and a viscosity (323.15 K, x1 = 0.4387) of 25.6 mPa·s. It also gave an electrical conductivity (323.15 K, x1 = 0.5021) of 0.34 S/m, a viscosity (323.15 K, x1 = 0.5021) of 36.3 mPa·s and an electrical conductivity (323.15 K, x1 = 0.5762) of 0.232 S/m. For the same compound, the viscosity (323.15 K, x1 = 0.5762) was 39.6 mPa·s, the electrical conductivity (323.15 K, x1 = 0.6827) was 0.184 S/m and the viscosity (323.15 K, x1 = 0.6827) was 57.4 mPa·s. For the same compound, the electrical conductivity (323.15 K, x1 = 0.8153) was 0.13 S/m, the viscosity (323.15 K, x1 = 0.8153) was 65.4 mPa·s and the electrical conductivity (323.15 K, x1 = 0.8939) was 0.101 S/m. For the same compound, the viscosity (323.15 K, x1 = 0.8939) was 72.1 mPa·s, the electrical conductivity (328.15 K, x1 = 0.401) was 0.71 S/m and the viscosity (328.15 K, x1 = 0.401) was 17.7 mPa·s. For the same compound, the electrical conductivity (328.15 K, x1 = 0.4387) was 0.603 S/m, the viscosity (328.15 K, x1 = 0.4387) was 20.9 mPa·s and the electrical conductivity (328.15 K, x1 = 0.5762) was 0.288 S/m. For the same compound, the viscosity (328.15 K, x1 = 0.5762) was 31.6 mPa·s, the electrical conductivity (328.15 K, x1 = 0.8153) was 0.166 S/m and the viscosity (328.15 K, x1 = 0.8153) was 50.6 mPa·s. For the same compound, the electrical conductivity (328.15 K, x1 = 0.8939) was 0.13 S/m, the viscosity (328.15 K, x1 = 0.8939) was 55.6 mPa·s and the electrical conductivity (333.15 K, x1 = 0.401) was 0.838 S/m. The viscosity (333.15 K, x1 = 0.401) was 15 mPa·s, the electrical conductivity (333.15 K, x1 = 0.4387) was 0.727 S/m and the viscosity (333.15 K, x1 = 0.4387) was 17.4 mPa·s. It also gave an electrical conductivity (333.15 K, x1 = 0.5021) of 0.505 S/m, a viscosity (333.15 K, x1 = 0.5021) of 23.8 mPa·s and an electrical conductivity (333.15 K, x1 = 0.5762) of 0.372 S/m. For the same compound, the viscosity (333.15 K, x1 = 0.5762) was 25.7 mPa·s, the electrical conductivity (333.15 K, x1 = 0.6827) was 0.293 S/m and the viscosity (333.15 K, x1 = 0.6827) was 35.8 mPa·s. It also gave an electrical conductivity (333.15 K, x1 = 0.8153) of 0.21 S/m, a viscosity (333.15 K, x1 = 0.8153) of 39.8 mPa·s and an electrical conductivity (333.15 K, x1 = 0.8939) of 0.169 S/m. For the same compound, the viscosity (333.15 K, x1 = 0.8939) was 43.6 mPa·s, the electrical conductivity (338.15 K, x1 = 0.401) was 0.973 S/m and the viscosity (338.15 K, x1 = 0.401) was 12.8 mPa·s. The electrical conductivity (338.15 K, x1 = 0.4387) was 0.858 S/m, the viscosity (338.15 K, x1 = 0.4387) was 14.7 mPa·s and the electrical conductivity (338.15 K, x1 = 0.5762) was 0.441 S/m. It also gave a viscosity (338.15 K, x1 = 0.5762) of 21.2 mPa·s, an electrical conductivity (338.15 K, x1 = 0.6827) of 0.359 S/m and a viscosity (338.15 K, x1 = 0.6827) of 29.2 mPa·s. It also gave an electrical conductivity (338.15 K, x1 = 0.8153) of 0.263 S/m, a viscosity (338.15 K, x1 = 0.8153) of 31.8 mPa·s and an electrical conductivity (338.15 K, x1 = 0.8939) of 0.203 S/m. It also gave a viscosity (338.15 K, x1 = 0.8939) of 36.5 mPa·s, an electrical conductivity (343.15 K, x1 = 0.401) of 1.13 S/m and a viscosity (343.15 K, x1 = 0.401) of 11.1 mPa·s. It also gave an electrical conductivity (343.15 K, x1 = 0.4387) of 1.01 S/m, a viscosity (343.15 K, x1 = 0.4387) of 11.9 mPa·s and an electrical conductivity (343.15 K, x1 = 0.5021) of 0.705 S/m. For the same compound, the viscosity (343.15 K, x1 = 0.5021) was 16.5 mPa·s, the electrical conductivity (343.15 K, x1 = 0.5762) was 0.521 S/m and the viscosity (343.15 K, x1 = 0.5762) was 17.7 mPa·s. The electrical conductivity (343.15 K, x1 = 0.8939) was 0.255 S/m, the viscosity (343.15 K, x1 = 0.8939) was 28.2 mPa·s and the electrical conductivity (348.15 K, x1 = 0.4387) was 1.12 S/m. The viscosity (348.15 K, x1 = 0.4387) was 10.3 mPa·s, the electrical conductivity (348.15 K, x1 = 0.5021) was 0.808 S/m and the viscosity (348.15 K, x1 = 0.5021) was 14 mPa·s. The electrical conductivity (348.15 K, x1 = 0.6827) was 0.503 S/m, the viscosity (348.15 K, x1 = 0.6827) was 20.5 mPa·s and the electrical conductivity (348.15 K, x1 = 0.8153) was 0.399 S/m. It also gave a viscosity (348.15 K, x1 = 0.8153) of 21.4 mPa·s, an electrical conductivity (348.15 K, x1 = 0.8939) of 0.31 S/m and a viscosity (348.15 K, x1 = 0.8939) of 24.4 mPa·s. It also gave an electrical conductivity (353.15 K, x1 = 0.401) of 1.47 S/m, a viscosity (353.15 K, x1 = 0.401) of 8.8 mPa·s and an electrical conductivity (353.15 K, x1 = 0.4387) of 1.34 S/m. The viscosity (353.15 K, x1 = 0.4387) was 9 mPa·s, the electrical conductivity (353.15 K, x1 = 0.5021) was 0.908 S/m and the viscosity (353.15 K, x1 = 0.5021) was 12 mPa·s. The electrical conductivity (353.15 K, x1 = 0.6827) was 0.601 S/m, the viscosity (353.15 K, x1 = 0.6827) was 16.9 mPa·s and the electrical conductivity (353.15 K, x1 = 0.8153) was 0.37 S/m. For the same compound, the viscosity (353.15 K, x1 = 0.8153) was 17 mPa·s and the viscosity (353.15 K, x1 = 0.8939) was 20.7 mPa·s.

From a compilation of properties of binary mixtures (doi:10.1007/s10953-021-01067-6)
